Data reported in patent US20060160824A1, “Indole derivatives as serotonin reuptake inhibitors” (priority 2003, published 2006).

Key:
5-HT4 receptor = 5-HT4 receptor (Homo sapiens, UniProt Q13639); assay: 5-HT4 receptor binding test
5-HT1A receptor = target: T1, 5-HT1A receptor (Rattus norvegicus, UniProt P19327); assay: 5-HT1A receptor binding test
T1 construct: from tissue
T1 sequence (P19327 1-422): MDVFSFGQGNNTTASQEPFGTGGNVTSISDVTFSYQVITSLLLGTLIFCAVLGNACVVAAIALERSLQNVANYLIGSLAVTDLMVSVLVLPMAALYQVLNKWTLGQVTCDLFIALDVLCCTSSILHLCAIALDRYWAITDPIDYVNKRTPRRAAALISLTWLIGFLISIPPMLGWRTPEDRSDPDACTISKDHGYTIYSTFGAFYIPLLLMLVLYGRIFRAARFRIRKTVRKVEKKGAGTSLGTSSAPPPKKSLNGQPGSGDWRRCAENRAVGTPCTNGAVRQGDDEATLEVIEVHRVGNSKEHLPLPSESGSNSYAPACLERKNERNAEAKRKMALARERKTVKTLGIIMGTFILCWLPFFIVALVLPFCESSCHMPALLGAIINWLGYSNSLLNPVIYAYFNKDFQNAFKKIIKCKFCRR
Text: In particular, they inhibit 5-HT reuptake. […] Due to a 5-HT-agonistic action and 5-HT reuptake inhibition, serotonin remains in the synaptic cleft for longer and the serotonin action is reinforced. Active ingredients having such properties are therefore particularly suitable as antidepressants and anxiolytics. The compounds of the formula I inhibit the binding of tritiated serotonin ligands to hippocampal receptors (Cossery et al., European J. Pharmacol. 140 (1987), 143-155) and synaptosomal serotonin reuptake (Sherman et al., Life Sci. 23 (1978), 1863-1870).
The 5-HT1A-agonistic action can be measured in vitro, for example, with the aid of the (serotonin) binding test, as described by Matzen et al. (J. Med. Chem., 43 (2000), 1149-57), in particular on page 1156 with reference to Eur. J. Pharmacol., 140 (1987), 143-155. In addition, the 5-HT1A-agonistic action can be measured with the aid of the GTPgammaS test described by Newman-Tancredi et al. (Eur. J. Pharmacol. 307 (1996), 107-11).

Chain of 5-HT4 receptor (Q13639 whole entry): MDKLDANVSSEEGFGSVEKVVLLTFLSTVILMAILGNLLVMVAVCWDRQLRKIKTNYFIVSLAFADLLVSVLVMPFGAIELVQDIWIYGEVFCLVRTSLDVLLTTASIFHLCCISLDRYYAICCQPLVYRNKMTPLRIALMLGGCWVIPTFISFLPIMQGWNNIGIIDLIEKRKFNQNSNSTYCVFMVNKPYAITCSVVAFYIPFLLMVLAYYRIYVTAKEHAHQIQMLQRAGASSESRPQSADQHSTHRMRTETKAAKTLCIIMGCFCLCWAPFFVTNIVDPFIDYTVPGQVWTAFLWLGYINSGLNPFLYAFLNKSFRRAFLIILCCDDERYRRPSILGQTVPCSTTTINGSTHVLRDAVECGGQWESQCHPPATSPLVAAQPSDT

## Cn1cc(CCCCN2CCN(c3ccc4oc(C(N)=O)cc4c3)CC2)c2cc(C#N)ccc21 [Example 1, 5-{4-[4-(5-cyano-1-methyl-1H-indol-3-yl)butyl]piperazin-1-yl}-benzofuran-2-carboxamide]
5-HT4 receptor
  IC50: 21 nM
5-HT1A receptor
  IC50: 96 nM
